The record followed here is patent publication US20260167629A1, “NOVEL INDAZOLE DERIVATIVE OR PHARMACEUTICALLY ACCEPTABLE SALT THEREOF, AND USE THEREOF” (KOREA UNIVERSITY RESEARCH AND BUSINESS FOUNDATION, priority 2022, published 2026).

In test [1] the test system is liver cancer cell line HepG2. The test is described as follows: MTS cell viability assay in HepG2. Format: cell-based. Conditions: HepG2, 0.1-20 μM, 72 hours. As to the method:
(§1) Specifically, cells were attached to 96 well plates for 24 hours, and then treated with the indazole derivatives for 72 hours. Thereafter, the cells were chromogenized with MTS for 4 hours, and the absorbance was measured at 490 nm using a Spectramax Plus384 microplate analyzer. The significance between the control group and the experimental group was verified using an unpaired Students t-test (*p<0.01; DMSO control vs indazole series).
(§2) In addition to the breast cancer cell line, a leukemia cell line HL-60, a liver cancer cell line HepG2, a colorectal cancer cell line HCT116, a prostate cancer cell line Du145, an ovarian cancer cell line SKOV3, and non-small cell lung cancer cell lines NCI-H1299 and A549 were treated with compound 11k (formula 1-7) at concentrations of 0 (DMSO), 0.1, 0.5, 1, 2, 5, 10, and 20 μM, respectively, for 72 hours, and then cell viability was measured using the MTS assay technique as explained by the description of Experimental Example 1. The significance between the control group and the experimental group was verified using an unpaired Students t-test (*p<0.01; DMSO control vs compound 11k).

Test [2] deals with colorectal cancer cell line HCT116. The test is described as follows: MTS cell viability assay in HCT116. It is filed as cell-based. Conditions: HCT116, 0.1-20 μM, 72 hours. As to the method: as §1, §2
In test [3] the test system is prostate cancer cell line Du145. The test is described as follows: MTS cell viability assay in Du145. It is filed as cell-based. To be noted: Du145, 0.1-20 μM, 72 hours. The procedure:
as §1, §2

Test [4] deals with non-small cell lung cancer cell line NCI-H1299. The test is described as follows: MTS cell viability assay in NCI-H1299. It is filed as cell-based. To be noted: NCI-H1299, 0.1-20 μM, 72 hours. As to the method:
as §1, §2

For test [5], the system named is non-small cell lung cancer cell line A549. Nature of the test: MTS cell viability assay in A549. Format: cell-based. To be noted: A549, 0.1-20 μM, 72 hours. As to the method:
as §1, §2

Test [6] has as its system JIMT-1 breast cancer cell line xenograft. Nature of the test: Tumor growth in JIMT-1 xenograft mouse model, combination with paclitaxel. Format: in vivo, Balb/c nude mice. As to the method: This experiment was performed in an in vivo environment using a xenograft mouse model transplanted with the JIMT-1 breast cancer cell line.
6-week-old mice (Balb/c nude mice) were purchased and raised in an environment where they could freely access food and water. The mice were acclimated for more than 7 days, and then were transplanted with tumor cells. Tumor cells were injected subcutaneously into the mammary gland tissue of JIMT-1 breast cancer cells at a density of 3×10^6 cells/mL per individual, and when the tumor reached a size of 50 to 100 mm^3, the indazole derivative of the present disclosure was administered intraperitoneally, and the tumor growth was measured.

Each structure is given as a SMILES string.

As to `COc1c(C(=O)Nc2ccc3c(C)nn(CCC4CCN(C)CC4)c3c2)ccc2c1C=CC(C)(C)O2` [compound 11k, 5-Methoxy-2,2-dimethyl-N-(3-methyl-1-(2-(1-methylpiperidin-4-yl)ethyl)-1H-indazol-6-yl)-2H-chromene-6-carboxamide], the cell viability result in test [1], in test [2], in test [3], in test [4] and in test [5] was “effective in inhibiting cell viability” throughout. In test [6] (measured after tumor resection), the tumor weight is recorded as 500 mg. The tumor volume in test [6] (measured at 40 days after drug administration) is given as 786.392 mm^3.
